Assay results published in patent publication US9018195B2, “Use of 2,5-dihydroxybenzene sulfonic acid compounds for treating skin photoaging” (AmDerma Pharmaceuticals, LLC, priority 2004, dated 2015).

Experiments:
[1] = molecular target: T1, fibroblast growth factor-1 (FGF-1) (Homo sapiens, UniProt P05230); assay: Inhibition of fibroblast mitogenesis induced by FGF-1 in quiescent Balb/c 3T3 cultures; assay type: cell-based; conditions: quiescent cultures of Balb/c 3T3 fibroblasts; potassium salts, 2-acetoxy-5-hydroxybenzenesulfonate as calcium salt
T1 construct: host or cells: added to Balb/c 3T3 fibroblast cultures
T1 sequence (P05230 whole entry, species assumed): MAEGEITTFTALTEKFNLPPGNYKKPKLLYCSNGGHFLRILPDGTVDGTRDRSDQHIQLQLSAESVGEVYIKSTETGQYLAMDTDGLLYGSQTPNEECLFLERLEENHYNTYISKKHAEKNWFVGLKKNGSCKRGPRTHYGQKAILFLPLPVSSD
Procedure: The evaluated compounds were used in the form of potassium salt, except in the first case in which calcium salt was used. The experiments were carried out as described in Fernández-Tornero C et al. J Biol Chem, 2003.

[2] = system: cell line of preadipocytes 3T3L1; assay: Adipogenesis assay in preadipocytes, Oil Red O staining; assay type: cell-based
Procedure: The preadipocytes were seeded in a 6 well plate where they grew up to the confluence In a standard culture medium [Dulbecco's Essential Medium (DEM)], supplemented with 1.5 g/L of sodium bicarbonate, non essential aminoacids and 10% bovine fetal serum. […] The culture medium was renewed every two days. After seven days, the differentiation to adipocytes was initiated in the six wells by the addition of dexametasone ([…]), 3-isobutyl-1-methylxanthine (0.5 mM) and insuline (160 nM) during two days, followed by the substitution of the culture medium by another culture medium containing insuline (160 nM) during five days. […] The culture medium was renewed every two days.
12 days later, the adipogenesis was determined by staining with Oil Red O to check the cytoplasmic accumulation of triglycerides. The cells were washed with phosphate buffer (PBS), fixed with 4% paraformaldehyde and stained during thirty minutes with Oil Red O. Isopropanol was used to remove the dye from the cells to quantify the accumulation of lipids; the absorbance thereof was measured at 510 nm in a spectrophotometer.

mouse glioma C6 cells = assay: Proliferation of glioma C6 cells, crystal violet; assay type: cell-based; conditions: 500 μM, 48 hours, potassium salts, p<0.001
Procedure: The cell line used was that of mouse glioma C6 cells. Once attached, the cells were treated o not treated (controls) with (5A-2HBS) (500 μM) or (2A-5HBS) (500 μM) and they were allowed to proliferate during 48 hours. After that, the proliferation of glioma cells was evaluated by staining the fixed cells with crystal violet. The number of cells is proportional to the amount of retained dye, which was spectrophotometrically determined by measuring absorbance at 595 nm after removing the dye from the cells.

[3] = system: rabbit subcutaneous fat preadipocytes; assay: Proliferation of subcutaneous fat preadipocytes, crystal violet; assay type: cell-based; conditions: 72 hours
Procedure: The primary cultures of rabbit preadipocytes were obtained from the inguinal fat of New Zealand rabbits. Once the fat is removed, it is processed by mechanical disaggregation and enzymatic digestion with 0.075% type I collagenase (Gibco BRL, Paisley, Scotland, RU) for 30 minutes at 37°. The mature adipocytes are separated, removed by centrifugation (300×g, 5 min) and the cell sediment is selected. Then, the mononuclear cells with low cell density are isolated by density gradient centrifugation with Ficoll-Paque (Amersham Biosciences, Uppsala, Sweden). Once the low density mononuclear cells are obtained, they are seeded in a 75 cm^2 culture flask and cultured in an incubator at 37° C. with air containing 5% CO2, in an Eagle medium modified by Dulbecco (DMEM) (Gibco) with 10% of bovine fetal serum (Gibco) and 0.1% of antibiotic-antimicotic (Gibco). The culture medium is replaced 24 hours later to remove the cells present in the supernatant, and to select the cells adhered to the culture flask. […]
The rabbit preadipocytes proliferation experiments were carried out in 24-well plates. […] The proliferation of preadipocytes was evaluated 72 hours later, and at that moment the cells were fixed with 1% glutaraldehyde. The cellular proliferation was evaluated using the crystal violet method, by measuring the absorbance at a wave length of 595 nm.

[4] = molecular target: T1, fibroblast growth factor-1 (FGF-1); assay: Structural interaction with FGF-1 from diffraction of complex crystals; assay type: binding; conditions: electron density contoured at 1σ; acetoxyl groups kept when bound
Procedure: As of the diffraction from complex crystals of FGF-1: 2-acetoxy-5-hydroxybenzenesulfonic acid, FGF-1: 5-acetoxy-2-hydroxybenzenesulfonic acid and FGF-1: 2,5-diacetoxybenzenesulfonic acid, the complex structures were calculated and represented. In FIGS. 20, 21 and 22, representing the surface of the protein cloured according to its electrostatic potential (light grey: negative charge, dark grey: positive charge, white: areas with no charge), the interaction form of the 2-acetoxy-5-hydroxybenzenesulfonic acid, 5-acetoxy-2-hydroxybenzenesulfonic acid and 2,5-diacetoxybenzenesulfonic acid, respectively, with the FGF-1 may be observed.

viral warts = assay: Topical treatment of viral warts; assay type: in vivo, human; conditions: 5% cream, twice a day for 11 days
Excerpt: (§1) Topical treatment with the above described cream (twice a day for 11 days) of human skin (basal conditions shown in FIG. 2A) results in a reduction of seborrheic keratosis (big circle) as well as of viral warts (small circle), as shown in FIG. 2B.

seborrheic keratosis = assay: Topical treatment of seborrheic keratosis; assay type: in vivo, human
Excerpt: as §1
Another example of the effect of 2,5-dihydroxybenzenesulfonate on seborrheic keratosis is shown in FIG. 3, wherein the seborrheic keratosis is reduced due to the topical treatment on the affected area for 4 weeks, twice a day, with an emulsion containing the 2,5-dihydroxybenzenesulfonic acid, 2.5% by weight.

actinic keratosis = assay: Topical treatment of actinic keratosis lesions in patients; assay type: in vivo, human; conditions: for actinic keratosis: 2.5% by weight emulsion, twice a day, two lesions in the same patient (scalp)
Excerpt: An emulsion containing 2.5% by weight of 2,5-dihydroxybenzenesulfonic acid was used to treat two lesions of actinic keratosis in the same patient, as shown in FIGS. 4 and 5. […] Calcium salt of 2,5-dihydroxybenzenesulfonic acid was used.
(§2) In this study, 2,5-dihydroxybenzenesulfonic acid, potassium salt, formulated as 5% by weight in the form of cream has been used, since this type of formulation is a habitual procedure for topical treatments of the skin. Distilled water has been used as the aqueous phase of the cream. The oil phase thereof may comprise cetyl alcohol, stearyl alcohol or vaseline. Span (sorbitan monooleate) is an effective emulsifier to make the cream.
Active principle: 2,5-dihydroxybenzenesulfonic acid, potassium salt, 5% by weight.
Excipients: cetyl alcohol (2.5%), stearyl alcohol (2.5%), liquid vaseline (30%), white soft vaseline (20%), sorbitan monooleate (5%) and distilled water (q.s. to 100 g).

hair growth = assay: Effect of topical cream on hair growth; assay type: in vivo, human; conditions: 5% cream, potassium salt, twice a day for 3 months
Excerpt: 2,5-dihydroxybenzenesulfonic acid, potassium salt, formulated in the form of cream was used and its composition was the same as that used in example 1.

human photoaged skin = assay: Topical treatment of human photoaged skin with cream; assay type: in vivo; conditions: 5% cream, potassium salt, twice a day for 3 months
Excerpt: as §2
Active principle: 2,5-dihydroxybenzenesulfonic acid, potassium salt, 5% by weight. Excipients: cetyl alcohol (2.5%), stearyl alcohol (2.5%), liquid vaseline (30%), white soft vaseline (20%), sorbitan monooleate (5%) and distilled water (q.s. to 100 g).
Lightening of skin hyperpigmentation after the application of 2,5-dihydroxybenzenesulfonic acid may justify the use thereof to treat melanic dyschromia with hyperpigmentation as occurs, among other pathologies, in the Mongolian spot, the nevus of Ota, the nevus of Ito, the nevus of Becker, ephelides (freckles), the lentigo malign melanoma, the café-au-lait macules or the melasma (chloasma).

O=S(=O)([O-])c1cc(O)ccc1O.[K+] [potassium 2,5-dihydroxybenzenesulfonate]
FGF-1 induced mitogenesis [1]: Inhibition of the mitogenesis

O=C(O)c1cc(O)ccc1O [gentisic acid, 2,5-dihydroxybenzoic acid]
accumulation of triglycerides (percentage of absorbance at 510 nm) versus untreated cells ([2]; 50 μM, p<0.05): significantly smaller | differentiation of the preadipocytes and adipogenesis ([2]; 3T3-L1 preadipocytes, 50 μM, two weeks): inhibits the differentiation of the preadipocytes and the adipogenesis

CC(=O)Oc1ccc(O)cc1S(=O)(=O)O [2A-5HBS, 2-acetoxy-5-hydroxybenzenesulfonic acid]
proliferation of glioma cells (absorbance at 595 nm) (mouse glioma C6 cells): caused the inhibition of the proliferation | concentration as of which a significant effect on preadipocyte proliferation is obtained [3]: 100 µM | proliferation of preadipocytes (absorbance at 595 nm) ([3]; DHBS 10 to 100 μM, 2A-5HBS 10 to 500 μM, concentration dependent): significantly inhibited | FGF-1 induced mitogenesis [1]: Inhibition of FGF-1 mitogenesis was observed | location of the compound bound to FGF-1 in the complex crystal [4]: located at a site very close to the site that, as described, is occupied by the 2,5-dihydroxybenzenesulfonic acid

CC(=O)Oc1ccc(O)c(S(=O)(=O)[O-])c1.[K+] [5A-2HBS, potassium 5-acetoxy-2-hydroxybenzenesulfonate]
proliferation of glioma cells (absorbance at 595 nm) (mouse glioma C6 cells): caused the inhibition of the proliferation | FGF-1 induced mitogenesis [1]: Inhibition of FGF-1 mitogenesis was observed | location of the compound bound to FGF-1 in the complex crystal [4]: located at a site very close to the site that, as described, is occupied by the 2,5-dihydroxybenzenesulfonic acid

O=S(=O)(O)c1cc(O)ccc1O [2,5-dihydroxybenzenesulfonic acid]
viral warts (viral warts): reduction | seborrheic keratosis (seborrheic keratosis; 2.5% by weight emulsion, twice a day for 4 weeks, facial): reduced | seborrheic keratosis (seborrheic keratosis; 5% cream, twice a day for 11 days): reduction in the seborrheic keratosis | actinic keratosis lesion in the ear (actinic keratosis; 5% cream, topical, after 12 days): reduction of the actinic keratosis | actinic keratosis lesion in the ear (actinic keratosis; 5% cream, topical, after 15 days): the lesion was cleared | actinic keratosis lesion in the nose (actinic keratosis; 5% cream, topical, after 30 days): reduction of the actinic keratosis | hair in the area of application (hair growth): disappearance of hair in the area of application | number of preadipocytes differentiated in adipocytes ([2]; 3T3-L1 cells, 25 μM, during 12 hours (so in the source)): very significant reduction | actinic lentigo areas of photoaged skin (human photoaged skin): disappearance of actinic lentigo areas | wrinkles of photoaged skin (human photoaged skin): reduction of the wrinkles

CC(=O)Oc1ccc(OC(C)=O)c(S(=O)(=O)[O-])c1.[K+] [DABS, potassium 2,5-diacetoxybenzene sulfonate]
FGF-1 induced mitogenesis [1]: Inhibition of FGF-1 mitogenesis was observed | location of the compound bound to FGF-1 in the complex crystal [4]: located at a site very close to the site that, as described, is occupied by the 2,5-dihydroxybenzenesulfonic acid

calcium 2,5-dihydroxybenzenesulfonate
actinic keratosis (actinic keratosis; after 4 weeks): the effect was even more evident | actinic keratosis (actinic keratosis; after 15 days): clearly reduced
